Measured values taken from PubChem BioAssay (NCI).
“And” between values parts separate entries of the source, which are not always exact repeats. Identical values can stand only once.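 Briefly, cells in 96-well plates were exposed to five compound concentrations for 48 h, and endpoints were estimated by linear interpolation. GI50 is the concentration that inhibits growth by half. TGI: total growth inhibition.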

Tests used:
Assay in all cases: growth of human tumour cells (NCI), 48 h
TK-10 renal = tested on: TK-10 renal
A498 renal = tested on: A498 renal
BT-549 breast = tested on: BT-549 breast
SF-295 CNS = tested on: SF-295 CNS
RPMI-8226 leukemia = tested on: RPMI-8226 leukemia
SF-268 CNS = tested on: SF-268 CNS
RXF 393 renal = tested on: RXF 393 renal
HCT-15 colon = tested on: HCT-15 colon
SK-MEL-2 melanoma = tested on: SK-MEL-2 melanoma
MDA-MB-231 breast = tested on: MDA-MB-231 breast

Structure (SMILES) | GI50 (TK-10 renal) | TGI (TK-10 renal) | GI50 (A498 renal) | TGI (A498 renal) | GI50 (BT-549 breast) | TGI (BT-549 breast) | GI50 (SF-295 CNS) | TGI (SF-295 CNS) | GI50 (RPMI-8226 leukemia) | TGI (RPMI-8226 leukemia) | GI50 (SF-268 CNS) | TGI (SF-268 CNS) | GI50 (RXF 393 renal) | TGI (RXF 393 renal) | GI50 (HCT-15 colon) | TGI (HCT-15 colon) | GI50 (SK-MEL-2 melanoma) | TGI (SK-MEL-2 melanoma) | GI50 (MDA-MB-231 breast) | TGI (MDA-MB-231 breast)
CC[C@]12C=CCN3CC[C@@]4(c5ccc(OC)cc5N(C)[C@H]4[C@@](O)(C(=O)OC)[C@@H]1OC(=O)CCCN1CCN(CCCC(=O)O[C@@H]4[C@]5(CC)C=CCN6CC[C@@]7(c8ccc(OC)cc8N(C)[C@H]7[C@@]4(O)C(=O)OC)[C@@H]65)CC1)[C@@H]32 | 1.3 µM | 2.78 µM | 1.6 µM | 3.49 µM | 1.78 µM | 3.33 µM | 1.74 µM | 3.16 µM | 547 nM | 2.26 µM | 0.919 µM | 2.38 µM | 0.484 µM | 1.72 µM | 1.2 µM | 2.61 µM | 1880 nM | 3.59 µM | 0.665 µM | 2.02 µM
CCCCCCCCCCCCOC1C(C(COC2OC(C(O)CO)C3OC(C)(C)OC23)OC(=O)Nc2ccccc2)OC2OC(C)(C)OC21 (stereo not drawn) | 4.72 µM | 9.91 µM | 12.4 µM | 25.1 µM | 10.5 µM | 23.8 µM | 5.47 µM | 17.7 µM | 3930 nM | 15.2 µM | 4.47 µM | 16.6 µM | 4.33 µM | 12.6 µM | 4.5 µM | 16.1 µM | 16300 nM | 32.4 µM | 8.7 µM | 21.1 µM
OC[C@H]1C[C@](O)(c2ccc(F)cc2)[C@@H](c2ccc(F)cc2)O1 | > 100 µM | > 100 µM | > 100 µM | > 100 µM | > 100 µM | > 100 µM | > 100 µM | > 100 µM | > 100000 nM | > 100 µM | > 100 µM | > 100 µM | 52.7 µM | > 100 µM | > 100 µM | > 100 µM |  |  | > 100 µM | > 100 µM
C=C(C)c1nc(Oc2ccccc2)nc(Oc2ccccc2)n1 |  | 14 µM |  | 31.1 µM |  | 13.1 µM |  | 29.8 µM |  | 12 µM |  | 16.2 µM |  | 8.11 µM |  | 7.43 µM |  | 9.51 µM |  | 28.9 µM
OCc1ccc(N2CCc3ccc(F)cc3C2)cc1Cl | 0.0178 µM | 0.0693 µM | 0.0173 µM | 0.0751 µM | 15.2 µM | 29.3 µM | 0.0728 µM | 1.96 µM | 263 nM | 10.7 µM | 13.1 µM | 27 µM | 0.373 µM | 12.1 µM | 2.82 µM | 18.8 µM | 226 nM | 8.79 µM | 11.7 µM | 24.9 µM
CN(c1ccccc1)c1c2ccccc2nc2[nH]c3ccccc3c12 | 1.26 µM | 3.5 µM | 2.04 µM | 5.32 µM | 4.36 µM | 13.1 µM | 2.44 µM | 5.76 µM | 1490 nM | 3.92 µM | 3.41 µM | 15.2 µM | 2.11 µM | 38.7 µM | 2.73 µM | > 31.9 µM | 7710 nM |  | 1.93 µM | 4.63 µM
COc1ccc(-c2c(Nc3ccccn3)nc3c(C4=CCCCC4)c(-c4ccccc4)[nH]n3c2=O)cc1 | 4.82 µM | 19.1 µM | 2.01 µM | 15.4 µM | 1.88 µM | 17.6 µM | 2.48 µM | 14 µM | 1430 nM | 5.66 µM | 2.64 µM | 42.4 µM | 2.55 µM | 11.6 µM | 1.64 µM | > 100 µM | 2210 nM | 9.54 µM | 2.73 µM | 16.5 µM
CCOC(=O)C#Cc1c(C(=O)OCC)nnn1[C@@H]1O[C@H](COC)[C@@H](OC)[C@H]1OC | 1.86 µM | 3.45 µM | 18.2 µM | 32.9 µM | 13.1 µM | 26 µM | > 100 µM | > 100 µM | 4160 nM | 17.2 µM | 16.3 µM | 35.6 µM | 1.97 µM | 4.14 µM | 2.56 µM | 6.66 µM | 16600 nM | 32.9 µM | 10.7 µM | 25.1 µM
Cc1cccc(Oc2ccc(Nc3ncnc4ccc(NC(=O)CN(C)C)cc34)cc2Cl)c1 | 1.1 µM | 3.57 µM | 1.8 µM | 9.18 µM | 2.4 µM | 8.45 µM | 1.66 µM | 3.2 µM |  |  | 1.47 µM | 3.1 µM | 1.61 µM | 3.19 µM | 1.6 µM | 3.13 µM | 1840 nM | 3.63 µM | 1.72 µM | 3.57 µM
CNCc1cccc2c1OCCOCCOCCNS(=O)(=O)c1ccc(cc1)-c1cnc(N)c(n1)C(=O)N2 | 1.98 µM | 8.49 µM | 1.36 µM | 3.79 µM | 1.27 µM | 8.14 µM | 1.76 µM | 3.39 µM | 1730 nM | 4.26 µM | 1.04 µM | 3.31 µM | 0.353 µM | 1.72 µM | 4.86 µM | 18.9 µM | 1760 nM | 4.41 µM | 1.38 µM | 3.61 µM
CC1(C)CC2=NO[Se]3=C2C(=NO3)C1 |  | 19.5 µM |  | 10.4 µM |  | 7.28 µM |  | 7.6 µM |  | 18.5 µM |  | 56.3 µM |  | 9.18 µM |  | 11.5 µM |  | 24.8 µM |  | 16.4 µM
N=C(N)SCc1ccc(Cl)c2ccccc12 (tested in a mixture with another compound) |  | 20.9 µM and 19.7 µM |  | 22.5 µM and 23.2 µM |  | 29.5 µM and 30.8 µM |  | 24.9 µM and 23.7 µM |  | 18.5 µM and 7.98 µM |  | 33.3 µM and 33.5 µM |  | 20.5 µM and 22.7 µM |  | 32.8 µM and 36.8 µM |  | 21.7 µM and 25.1 µM |  | 21.9 µM and 27.8 µM
C#CCCCCCC(=O)N[C@H]1C=C[C@@H]2/C=C(C)/C=C/[C@@H](C)[C@H]([C@H](C)[C@H](O)[C@@H](C)NC(C)=O)OC(=O)/C=C/C=C(C)\C=C\[C@]2(C)C1 | 0.0158 µM | > 40 µM | 0.0046 µM | 0.0383 µM | < 0.004 µM | > 40 µM | < 0.004 µM | 0.0182 µM | < 4 nM | 4.61 µM | 0.397 µM | > 40 µM | < 0.004 µM | 2.48 µM | 0.00804 µM | > 40 µM | 4870 nM | > 40 µM | < 0.004 µM | < 0.004 µM
COc1cc(NC(=O)COc2ccccc2)c(C(N)=O)cc1OC | 14.4 µM | > 100 µM | 2.77 µM | 15.4 µM | 0.77 µM | > 100 µM | 0.93 µM | 16.6 µM | 2270 nM | > 100 µM | 6.77 µM | 45.7 µM | 1.69 µM | 9.52 µM | 0.804 µM | > 100 µM |  |  | 2.39 µM | 42.4 µM
COc1ccc(Cn2c(Br)c3c(c2-c2cc(OC)c(OC)c(OC)c2)CCc2sc(N)nc2-3)cc1 | 1.1 µM | 6.96 µM | 0.267 µM | 2.36 µM | 2.39 µM | 9.09 µM | 0.556 µM | 7.57 µM | 3160 nM | 32.4 µM | 1.73 µM | 20.8 µM | 0.448 µM | 14.8 µM | 1.05 µM | > 48.7 µM | 720 nM | 5.41 µM | 1.92 µM | 7.1 µM
COc1cc(/C=C/C(=O)c2nc3cc(F)ccc3nc2C)cc(OC)c1OC | > 100 µM | > 100 µM | 5.78 µM | > 100 µM | 8.12 µM | > 100 µM | > 25.2 µM | > 100 µM | 327 nM | 3.07 µM | 7.01 µM | > 100 µM |  |  | 2.94 µM | > 100 µM | 34500 nM | > 100 µM | 8.49 µM | > 100 µM
COc1cc2c(cc1C)NC(=O)/C2=C\c1ccc(Oc2ccccc2)cc1 | 16.8 µM | 32.9 µM | 13.9 µM | 26.8 µM | 14.2 µM | 28.3 µM | 17 µM | 36.8 µM | 12100 nM | 31.6 µM |  |  | 19.4 µM | 40.6 µM | 12.1 µM | 24.5 µM | 17000 nM | 40.9 µM | 18.2 µM | 37.5 µM
O=C(NO)c1ccc(CNc2cccc3nc(C4CC4)n(-c4ccccc4)c(=O)c23)cc1 | 1.73 µM | 7 µM | 1.87 µM | 4.03 µM | 3.24 µM | 14.3 µM |  |  | 2690 nM | 11.3 µM |  |  | 1.42 µM | 3.14 µM | 1.98 µM | 6.33 µM | 2760 nM | 7.45 µM | 2.31 µM | 7.33 µM
C/C(=C\c1csc(C)n1)[C@@H]1C[C@@H]2O[C@]2(C)CCC[C@H](C)[C@H](O)[C@@H](C)C(=O)C(C)(C)[C@@H](O)CC(=O)N1 | 0.00534 µM | 0.0411 µM | 0.000104 µM | 0.000215 µM | 0.000187 µM | 0.000416 µM | 0.000156 µM | 0.000423 µM | < 0.01 nM | < 1e-05 µM | 0.000215 µM | 0.000446 µM |  |  | 0.000152 µM | 0.000344 µM | < 0.01 nM | < 1e-05 µM | 0.000312 µM | 0.000479 µM
